The record followed here is ChEMBL document CHEMBL4266055, “Optimization of Phenyl Indole Inhibitors of the AAA+ ATPase p97” (ACS Med Chem Lett, 2018).

In brackets after ≈: the same amount, converted by molar mass.

Series [1] deals with T1, Transitional endoplasmic reticulum ATPase (Homo sapiens, UniProt P55072).
Description: Inhibition of recombinant full length human p97 (1 to 806 residues) expressed in Escherichia coli Rosetta 2 (DE3) using 100 uM ATP as substrate after 90 mins by luminescence assay
Series [2] in a line: Aqueous solubility of the compound in pH 7.4 buffer by UV/Vis spectroscopic analysis. The format is physicochemical.
Series [3] is described as follows: Half life in human liver microsomes at 10 uM in presence of NADPH/G6PD by LC-MS/MS analysis. The format is ADME, microsome. For orientation: Liver microsomes are a subcellular fraction often used to study metabolism.
The nature of series [4]: Half life in mouse liver microsomes at 10 uM in presence of NADPH/G6PD by LC-MS/MS analysis. It is filed as ADME, microsome.
Series [5] addresses T1, Transitional endoplasmic reticulum ATPase. Briefly: Inhibition of human p97 in human HeLa cells harboring UbG76V-GFP assessed as accumulation of UbG76V after 1 hr by microscopic analysis. The format is cell-based.
Series [6] shares this target. Put plainly: Inhibition of human p97 in human HeLa cells harboring UbG76V-GFP assessed as accumulation of UbG76V after 6 hrs by microscopic analysis. The format is cell-based.
Series [7] concerns Panel NCI-60 (60 carcinoma cell lines). Put plainly: Growth inhibition of human NCI60 cells after 48 hrs by sulforhodamine B assay. The format is functional. A general note: Sulforhodamine B stains cellular protein and so reports cell mass.
Series [8] deals with T1, Transitional endoplasmic reticulum ATPase. Put plainly: Inhibition of recombinant full length human p97 (1 to 806 residues) expressed in Escherichia coli Rosetta 2 (DE3) using 20 uM ATP as substrate after 90 mins by luminescence assay.

T1 sequence (P55072 whole entry): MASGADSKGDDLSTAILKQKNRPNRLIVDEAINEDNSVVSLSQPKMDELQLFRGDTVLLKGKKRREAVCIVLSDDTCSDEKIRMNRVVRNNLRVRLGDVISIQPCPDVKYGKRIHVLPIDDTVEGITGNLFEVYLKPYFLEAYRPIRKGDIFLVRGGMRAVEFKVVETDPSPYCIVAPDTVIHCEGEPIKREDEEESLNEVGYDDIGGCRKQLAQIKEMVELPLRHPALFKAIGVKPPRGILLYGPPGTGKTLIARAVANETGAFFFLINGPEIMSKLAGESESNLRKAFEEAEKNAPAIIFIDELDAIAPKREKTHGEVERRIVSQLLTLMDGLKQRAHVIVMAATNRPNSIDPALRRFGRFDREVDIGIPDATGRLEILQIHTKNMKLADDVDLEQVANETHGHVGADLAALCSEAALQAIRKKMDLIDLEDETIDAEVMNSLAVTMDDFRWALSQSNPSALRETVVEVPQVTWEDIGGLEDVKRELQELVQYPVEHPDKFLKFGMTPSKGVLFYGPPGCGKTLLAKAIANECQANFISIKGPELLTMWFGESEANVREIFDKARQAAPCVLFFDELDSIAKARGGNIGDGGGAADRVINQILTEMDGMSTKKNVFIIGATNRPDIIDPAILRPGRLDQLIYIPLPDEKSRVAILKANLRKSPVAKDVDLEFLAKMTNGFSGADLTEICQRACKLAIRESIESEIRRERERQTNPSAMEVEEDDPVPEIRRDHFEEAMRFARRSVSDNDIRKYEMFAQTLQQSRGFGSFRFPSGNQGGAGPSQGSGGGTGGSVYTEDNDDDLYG

With `c1ccc(CCNC2CCN(c3cccc(-c4cc5ccccc5[nH]4)c3)CC2)cc1`, the IC50 (usually the midpoint of a concentration-inhibition curve) in series [1] is 2.61 µM.

As for `CC(C)N1CCN(C2(CNC3CCN(c4cccc(-c5cc6cc(F)ccc6[nH]5)c4)CC3)CCC2)CC1`, the IC50 in series [1] turned out to be 0.1 µM. Take `Cc1cc(OCc2nnc(SC3CCCC3)n2-c2cccnc2)ccc1-c1ccc(S(C)(=O)=O)cc1`: the solubility (usually the dissolved amount per volume that the medium holds) in series [2] was determined as 86 µM (≈ 44.8 µg/mL). In addition, the t1/2 in series [3] and in series [4] was under 0.167 h each time. Molecule `CCN1CCN(CCNC2CCN(c3cccc(-c4cc5ccccc5[nH]4)c3)CC2)CC1` gave an IC50 in series [1] of 0.2 µM.

Take `c1ccc(CNC2CCN(c3cccc(-c4cc5ccccc5[nH]4)c3)CC2)nc1`: it took 1.06 µM to reach half-maximal inhibition in series [1] (IC50). Same read-out and setting: next, `c1cc(-c2cc3ccccc3[nH]2)cc(N2CCC(NCCN3CCNCC3)CC2)c1`: 0.33 µM; `c1ccc(CCNC2CCN(c3cccc(-c4cc5ccccc5[nH]4)c3)CC2)nc1`: 1.05 µM; `CC(C)N1CCN(C(=O)CCNC2CCN(c3cccc(-c4cc5cc(F)ccc5[nH]4)c3)CC2)CC1`: 0.19 µM. Same read-out and setting: next, `CC(C)N1CCN(C2CCN(c3cccc(-c4cc5cc(F)ccc5[nH]4)c3)CC2)CC1`: 4.76 µM; `CC(C)N1CCN(C2(CNC3CCN(c4cccc(-c5cc6cc(F)ccc6[nH]5)c4)CC3)COC2)CC1`: 0.09 µM; `CN1CCN(CCNC2CCN(c3cccc(-c4cc5ccccc5[nH]4)c3)CC2)CC1`: 0.28 µM. Same read-out and setting: the figure for `CC(C)N1CCN(CCNC2CCN(c3cccc(-c4cc5cc(F)ccc5[nH]4)c3)CC2)CC1` is 0.07 µM. In turn, `CN1CCN(C2(CNC3CCN(c4cccc(-c5cc6cc(F)ccc6[nH]5)c4)CC3)CCC2)CC1` came in with a solubility in series [2] of 330 µM (≈ 157 µg/mL). In addition, the t1/2 turned out to be 7.92 h in series [3] and 4.62 h in series [4]. The EC50 (in general, the concentration giving half of the maximal effect) is 15 µM in series [5] and over 40 µM in series [6]. Moreover, in series [7], the GI50 (usually the concentration at which growth is held to half of that of the control) is 2 µM. The molecule also had an IC50 in series [1] of 0.02 µM. With `Cn1ncnc1CCNC1CCN(c2cccc(-c3cc4ccccc4[nH]3)c2)CC1`, the IC50 was 2.4 µM in series [8] and 0.99 µM in series [1]. Turning to `CC(C)N1CCN(CCCNC2CCN(c3cccc(-c4cc5ccccc5[nH]4)c3)CC2)CC1`, in series [1], inhibition was half-maximal at 0.38 µM (IC50). Same read-out and setting: next, `CN(C)CCNC1CCN(c2cccc(-c3cc4cc(F)ccc4[nH]3)c2)CC1`: 0.8 µM.

Consider `CC(C)N1CCC(NC2CCN(c3cccc(-c4cc5cc(F)ccc5[nH]4)c3)CC2)CC1`, for which the solubility in series [2] came out at 380 µM (≈ 165 µg/mL). The t1/2 in series [3] came to 9.48 h; in series [4], 6.43 h. For the same molecule, the EC50 was 19 µM in series [5] and over 40 µM in series [6]. This molecule gave a GI50 in series [7] of 1.58 µM. The IC50 in series [1] is 0.05 µM.

For `CC(C)(C)N1CCN(CCNC2CCN(c3cccc(-c4cc5ccccc5[nH]4)c3)CC2)CC1`, the IC50 in series [1] amounted to 0.21 µM.
